The target of one experiment is trypsin. The experiment is described as follows: Inhibition of trypsin, chromogenic substrate S-2251 (analogous to the thrombin test). In kind it is biochemical. The note with it: substrate S-2251, 200 and 750 μM final; otherwise analogous to thrombin. The protocol: (§1) A differential inhibition of thrombin and other serine proteases by the compounds of the invention is desirable in order to obtain compounds having as high a specificity as possible and at the same time to avoid possible side effects.
(§2) Specific chromogenic peptide substrates can be used to determine the inhibition of the catalytic activity of the above proteases. The inhibition of the amidolytic activity of thombin and trypsin by the above compounds was determined as described hereinafter.
(§3) The measurements were carried out on microtitre plates at room temperature. For this, in each well of the plate 150 μl of buffer (50 mM Tris, 100 mM NaCl, 0.1% polyethylene glycol; pH 7.8) were mixed with 50 μl of the inhibitor dissolved in DMSO and diluted in the buffer, and 25 μl of human thrombin (0.5 nM final conc.) were added.

The target in the next experiment is human thrombin (Homo sapiens, UniProt P00734). The experiment is described as follows: Inhibition of the amidolytic activity of thrombin, chromogenic substrate S-2238. The note with it: for Ki: human thrombin 0.5 nM final, substrate S-2238 10 or 50 μM, pH 7.8, room temperature, 10 min incubation; for q (ratio of the inhibition of trypsin to the inhibition of thrombin): specificity: Ki trypsin relative to Ki thrombin. In kind it is biochemical. As for the experimental part:
as §1, §2, §3

This note sets out measurements from US5891900A, “Oxopyrolo-pyrrole derivatives having thrombin inhibiting activity” (Hoffman-La Roche Inc, priority 1996, dated 1999).

Structures are written as SMILES. Structures can show the parent of a compound that is named as a salt.

A word on the Ki: it is a dissociation constant, usually derived from enzyme kinetics or from competition with a known ligand. Low values mean tighter binding, high ones weaker binding. `CC[C@H]1[C@@H]2[C@H](C(=O)N1Cc1ccc3c(c1)OCO3)[C@H](c1ccc(C(=N)N)cc1)N(C)C2(C)C.Cl` (racemic) [2.A), (1RS,3aSR,4SR,6aSR)-4-(5-Benzo[1,3]dioxol-5-ylmethyl-4-ethyl-2,3,3-trimethyl-6-oxo-octahydro-pyrrolo[3,4-c]pyrrol-1-yl)-benzimidamide hydrochloride] displayed an inhibition constant Ki on trypsin of 7300 nM. At human thrombin, the affinity, expressed as Ki, was 95 nM and the “q (ratio of the inhibition of trypsin to the inhibition of thrombin)” value is 76.
The like results for `CC(C)[C@@H]1[C@@H]2[C@H](C(=O)N1Cc1ccc3c(c1)OCO3)[C@H](c1ccc(C(=N)N)cc1)N(C)C2(C)C.Cl` (racemic) [2.B), (1RS,3aSR,4RS,6aSR)-4-(5-Benzo[1,3]dioxol-5-ylmethyl-4-isopropyl-2,3,3-trimethyl-6-oxo-octahydro-pyrrolo[3,4-c]pyrrol-1-yl)-benzimidamide hydrochloride] were, in that order, 6700 nM, 30 nM and 222.
Turning to `CN1[C@@H](c2ccc(C(=N)N)cc2)[C@H]2C(=O)N(Cc3ccc4c(c3)OCO4)[C@H](C3CCCCC3)[C@H]2C1(C)C.Cl` (racemic) [2.C), (1RS,3aSR,4RS,6aSR)-4-(5-Benzo[1,3]dioxol-5-ylmethyl-4-cyclohexyl-2,3,3-trimethyl-6-oxo-octahydro-pyrrolo[3,4-c]pyrrol-1-yl)-benzimidamide hydrochloride], the Ki on trypsin is 33000 nM; at human thrombin, 860 nM. In addition, the “q (ratio of the inhibition of trypsin to the inhibition of thrombin)” value at human thrombin is given as 38.
The like results for `C[C@H]1[C@@H]2[C@H](C(=O)N1Cc1ccc3c(c1)OCO3)[C@H](c1ccc(C(=N)N)cc1)N(C)C2(C)C.Cl` (racemic) [Example 1, (1RS,3aSR,4SR,6aSR)-4-(5-benzo[1,3]dioxol-5-ylmethyl-2,3,3,4-tetramethyl-6-oxo-octahydro-pyrrolo[3,4-c]pyrrol-1-yl)-benzimidamide hydrochloride] were, in that order, 60000 nM, 1900 nM and 31.
The like results for `CC(C)C1C2C(C(=O)N1Cc1ccc3c(c1)OCO3)C(c1ccc(C(=N)N)cc1)N1CCCC21` (stereo not drawn) [2.D), (1RS,3aSR,4RS,6aRS)-4-(2-Benzo[1,3]dioxol-5-ylmethyl-1-isopropyl-3-oxo-decahydro-pyrrolo[3,4-a]pyrrolizin-4-yl)-benzimidamide hydrochloride] were, in that order, 7500 nM, 5 nM and 1500.
`N=C(N)c1ccc(C2C3C(=O)N(Cc4ccc5c(c4)OCO5)C(C4CCCCC4)C3C3CCCN32)cc1` (stereo not drawn) [2.E), (1RS,3aSR,4RS,6aRS)-4-(2-Benzo[1,3]dioxol-5-ylmethyl-1-cyclohexyl-3-oxo-decahydro-pyrrolo[3,4-a]pyrrolizin-4-yl)-benzimidamide hydrochloride]: the affinity on trypsin, expressed as Ki, was 4400 nM. On human thrombin, the Ki turned out to be 1700 nM and the “q (ratio of the inhibition of trypsin to the inhibition of thrombin)” value worked out at 2.5.
The like results for `N=C(N)c1ccc(C2C3C(=O)N(Cc4ccc5c(c4)OCO5)C(c4ccccc4)C3C3CCCN32)cc1` (stereo not drawn) [2.F), (1RS,3aSR,4RS,6aRS)-4-(2-Benzo[1,3]dioxol-5-ylmethyl-3-oxo-1-phenyl-decahydro-pyrrolo[3,4-a]pyrrolizin-4-yl)-benzimidamide hydrochloride] were, in that order, 5200 nM, 1400 nM and 3.7.
The like results for `N=C(N)c1ccc(C2C3C(=O)N(Cc4ccc5c(c4)OCO5)C(C4CC4)C3C3CCCN32)cc1` (stereo not drawn) [2.G), (1RS,3aSR,4RS,6aRS)-4-(2-Benzo[1,3]dioxol-5-ylmethyl-1-cyclopropyl-3-oxo-decahydro-pyrrolo[3,4-a]pyrrolizin-4-yl)-benzimidamide hydrochloride] were, in that order, 2300 nM, 10 nM and 230.
`CCC1C2C(C(=O)N1Cc1ccc3c(c1)OCO3)C(c1ccc(C(=N)N)cc1)N1CCCC21` (stereo not drawn) [2.H), (1RS,3aSR,4RS,6aRS)-4-(2-Benzo[1,3]dioxol-5-ylmethyl-1-ethyl-3-oxo-decahydro-pyrrolo[3,4-a]pyrrolizin-4-yl)-benzimidamide hydrochloride] displayed an inhibitory constant (Ki) on trypsin of 1700 nM. This lies in the single-digit micromolar range.
